According to PubChem BioAssay AID212 (DTP/NCI, 2004):
“And” between values parts separate entries of the source, which are not always exact repeats. Identical values can stand only once. Records with an inconclusive call do not appear.

System: BDF1 mice, colon carcinoma 38 sc, T/C %
Experiment: NCI In Vivo Anticancer Drug Screen. Data for tumor model Colon Carcinoma 38 (subcutaneous) in B6D2F1 (BDF1) mice
Outline: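 Ratio of survival or tumor size, compound-treated animals relative to vehicle controls, in tumor-bearing mice.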

[1] = endpoint: median tumor weight (est.), dose: 25.0 mg/kg/injection, schedule: Q07DX002 (ip), vehicle: saline, higher = larger tumour
[2] = endpoint: median tumor weight (est.), dose: 50.0 mg/kg/injection, schedule: Q07DX002 (ip), vehicle: saline, higher = larger tumour
[3] = endpoint: median tumor weight (est.), dose: 12.5 mg/kg/injection, schedule: Q07DX002 (ip), vehicle: saline with Tween-80, higher = larger tumour

C/C=C\C1OC1(C)c1cc(=O)c2c(C)cc3c(c2o1)C(=O)c1c(O)c(C2CC(C)(N(C)C)C(OC(C)=O)C(C)O2)cc(C2CC(N(C)C)C(O)C(C)O2)c1C3=O (centres undefined)
T/C (endpoint: median tumor weight (est.), dose: 0.38 mg/kg/injection, schedule: Q07DX002 (ip), vehicle: saline + alcohol, higher = larger tumour): 119 % of control | T/C (endpoint: median tumor weight (est.), dose: 0.75 mg/kg/injection, schedule: Q07DX002 (ip), vehicle: saline + alcohol, higher = larger tumour): 85 % of control | T/C (endpoint: median tumor weight (est.), dose: 3.0 mg/kg/injection, schedule: Q07DX002 (ip), vehicle: saline + alcohol, higher = larger tumour): 58 % of control | T/C (endpoint: median tumor weight (est.), dose: 6.0 mg/kg/injection, schedule: Q07DX002 (ip), vehicle: saline + alcohol, higher = larger tumour): 53 % of control

OCCN1CCN(CC/C=C2/c3ccccc3Sc3ccc(Cl)cc32)CC1
T/C (endpoint: median tumor weight (est.), dose: 3.12 mg/kg/injection, schedule: Q07DX002 (ip), vehicle: saline, higher = larger tumour): 83 % of control | T/C (endpoint: median tumor weight (est.), dose: 6.25 mg/kg/injection, schedule: Q07DX002 (ip), vehicle: saline, higher = larger tumour): 39 % of control | T/C (endpoint: median tumor weight (est.), dose: 12.5 mg/kg/injection, schedule: Q07DX002 (ip), vehicle: saline, higher = larger tumour): 112 % of control | T/C [1]: 67 % of control | T/C [2]: 110 % of control | T/C (endpoint: median tumor weight (est.), dose: 100.0 mg/kg/injection, schedule: Q07DX002 (ip), vehicle: saline, higher = larger tumour): 99 % of control

Nc1ccc(Cl)cc1N
T/C [3]: 75 % of control and 97 % of control | T/C (endpoint: median tumor weight (est.), dose: 25.0 mg/kg/injection, schedule: Q07DX002 (ip), vehicle: saline with Tween-80, higher = larger tumour): 78 % of control and 92 % of control

CC1OC1C(=O)C1(O)C(C)C(O)C23OC2(C(O)c2c(O)cccc2C3=O)C1O (centres undefined)
T/C (endpoint: median tumor weight (est.), dose: 2.0 mg/kg/injection, schedule: Q07DX002 (ip), vehicle: Klucel (hydroxypropylcellulose) (HPC), higher = larger tumour): 95 % of control and 101 % of control | T/C (endpoint: median tumor weight (est.), dose: 4.0 mg/kg/injection, schedule: Q07DX002 (ip), vehicle: Klucel (hydroxypropylcellulose) (HPC), higher = larger tumour): 77 % of control and 91 % of control | T/C (endpoint: median tumor weight (est.), dose: 8.0 mg/kg/injection, schedule: Q07DX002 (ip), vehicle: Klucel (hydroxypropylcellulose) (HPC), higher = larger tumour): 95 % of control and 102 % of control | T/C (endpoint: median tumor weight (est.), dose: 32.0 mg/kg/injection, schedule: Q07DX002 (ip), vehicle: Klucel (hydroxypropylcellulose) (HPC), higher = larger tumour): 98 % of control | T/C (endpoint: median tumor weight (est.), dose: 64.0 mg/kg/injection, schedule: Q07DX002 (ip), vehicle: Klucel (hydroxypropylcellulose) (HPC), higher = larger tumour): 124 % of control

CN(C)C=O
T/C [1]: 45 % of control | T/C [2]: 83 % of control | T/C (endpoint: median tumor weight (est.), dose: 200.0 mg/kg/injection, schedule: Q07DX002 (ip), vehicle: saline, higher = larger tumour): 89 % of control | T/C (endpoint: median tumor weight (est.), dose: 400.0 mg/kg/injection, schedule: Q07DX002 (ip), vehicle: saline, higher = larger tumour): 89 % of control and 92 % of control | T/C (endpoint: median tumor weight (est.), dose: 800.0 mg/kg/injection, schedule: Q07DX002 (ip), vehicle: saline, higher = larger tumour): 115 % of control

CCN(CC)C(C)(C)C(=O)/C=C/c1ccccc1
T/C (endpoint: median tumor weight (est.), dose: 31.25 mg/kg/injection, schedule: Q07DX002 (ip), vehicle: saline with Tween-80, higher = larger tumour): 68 % of control | T/C (endpoint: median tumor weight (est.), dose: 62.5 mg/kg/injection, schedule: Q07DX002 (ip), vehicle: saline with Tween-80, higher = larger tumour): 39 % of control | T/C (endpoint: median tumor weight (est.), dose: 125.0 mg/kg/injection, schedule: Q07DX002 (ip), vehicle: saline with Tween-80, higher = larger tumour): 78 % of control | T/C (endpoint: median tumor weight (est.), dose: 250.0 mg/kg/injection, schedule: Q07DX002 (ip), vehicle: saline with Tween-80, higher = larger tumour): 34 % of control

O=C1C2(Cl)C3(Cl)C4(Cl)C(Cl)(Cl)C5(Cl)[C@]3(Cl)C1(Cl)[C@]5(Cl)C24Cl (some centres undefined)
T/C (endpoint: median tumor weight (est.), dose: 25.0 mg/kg/injection, schedule: Q07DX002 (ip), vehicle: Klucel (hydroxypropylcellulose) (HPC), higher = larger tumour): 88 % of control | T/C (endpoint: median tumor weight (est.), dose: 50.0 mg/kg/injection, schedule: Q07DX002 (ip), vehicle: Klucel (hydroxypropylcellulose) (HPC), higher = larger tumour): 75 % of control | T/C (endpoint: median tumor weight (est.), dose: 100.0 mg/kg/injection, schedule: Q07DX002 (ip), vehicle: Klucel (hydroxypropylcellulose) (HPC), higher = larger tumour): 44 % of control

CCCCCCCCCCCC(=O)NC1CC(O[C@H]2C[C@](O)(C(=O)CO)Cc3c(O)c4c(c(O)c32)C(=O)c2c(OC)cccc2C4=O)OC(C)C1O (some centres undefined)
T/C (endpoint: median survival time, dose: 17.0 mg/kg/injection, schedule: Q07DX003 (iv), vehicle: saline, higher = longer survival): 97 % of control | T/C (endpoint: median survival time, dose: 43.0 mg/kg/injection, schedule: Q07DX003 (iv), vehicle: saline, higher = longer survival): 123 % of control | T/C (endpoint: median survival time, dose: 70.0 mg/kg/injection, schedule: Q07DX003 (iv), vehicle: saline, higher = longer survival): 103 % of control | T/C (endpoint: median tumor weight (est.), dose: 28.7 mg/kg/injection, schedule: Q07DX002 (ip), vehicle: distilled water + Tween-80, higher = larger tumour): 96 % of control | T/C (endpoint: median tumor weight (est.), dose: 56.3 mg/kg/injection, schedule: Q07DX002 (ip), vehicle: distilled water + Tween-80, higher = larger tumour): 101 % of control

COC1=C(OC)C(=O)C(Sc2ccc3ccccc3c2)=CC1=O
T/C (endpoint: median tumor weight (est.), dose: 6.25 mg/kg/injection, schedule: Q07DX002 (ip), vehicle: saline with Tween-80, higher = larger tumour): 86 % of control | T/C [3]: 63 % of control | T/C (endpoint: median tumor weight (est.), dose: 50.0 mg/kg/injection, schedule: Q07DX002 (ip), vehicle: saline with Tween-80, higher = larger tumour): 90 % of control and 98 % of control | T/C (endpoint: median tumor weight (est.), dose: 100.0 mg/kg/injection, schedule: Q07DX002 (ip), vehicle: saline with Tween-80, higher = larger tumour): 87 % of control and 88 % of control | T/C (endpoint: median tumor weight (est.), dose: 200.0 mg/kg/injection, schedule: Q07DX002 (ip), vehicle: saline with Tween-80, higher = larger tumour): 74 % of control
